Assay results taken from patent US10919869B2, “Thiazole derivative and applications” (EAST CHINA UNIVERSITY OF SCIENCE AND TECHNOLOGY, priority 2016, dated 2021).

Target: hsDHODH (Homo sapiens (Human), UniProt Q02127)
Assay: Activity test at enzyme level: DHODH inhibition, DCIP absorbance at 600 nm
Assay type: biochemical
Details: pharmaceutically acceptable esters (prodrugs of A and B series), hsDHODH enzyme test; read-out: IC50
Procedure: Culture and Purification of hsDHODH Protein
The correctly sequenced recombinant plasmid pET-19b-DHODH was transformed into competent E. coli BL21 (DE3), and cultured on LB plate containing ampicillin. Colonies were randomly selected, inoculated into LB medium containing […], and incubate overnight at 37° C., 230 rpm. The cells were inoculated at a ratio of 1:200 in 500 mL of LB medium containing […] and expanded at 37° C., 230 rpm. When the OD value of the cells reached 0.8-1, IPTG was added into the medium to a final concentration of IPDG of 0.5 mM, and expression was induced overnight at 25° C. The induced cells were collected by centrifugation at […], 4° C., washed with deionized water, and centrifuged again to collect the bacterial pellet, which was stored at −80° C.
Purification of protein: cells were re-suspended in lysis liquid containing 50 mM HEPES (pH 8.0), 0.15 M NaCl, 10 mM imidazole, 10% glycerol, 0.1% Triton X-100, and a small amount of soy protease inhibitor added. After re-suspended and mixed homogeneously, cells were ultrasonically disrupted. The disruption solution was centrifuged for 30 min, and the supernatant and precipitate were taken for protein electrophoresis to determine the form of protein. The supernatant was loaded onto a Ni-NTA column, and the pass-through liquid was collected, and then the resin was washed for 3-4 times with a lysis liquid containing 20 mM imidazole, and finally eluted with a lysis liquid containing 300 mM imidazole. After elution, protein solution was collected. 10 μL of the above protein sample was taken for SDS-PAGE electrophoresis to determine the content of target protein. Finally, the eluted protein solution is dialyzed in the dialysis liquid to remove imidazole, thereby obtaining a pure protein.
Method for Testing Activities of Compounds at Enzyme Level
Principles of activity test at enzyme level: firstly, dihydroorotate (DHO) is oxidatively dehydrogenated by DHODH to form orotic acid (Orotate, OA), accompanied by reduction of Flavin mononucleotide (FMN) into reduced flavin mononucleotide (FMNH2) by accepting 2H+ and 2e−, then coenzyme Q (CoQ) as hydrogen acceptor accepting electron and proton from FMNH2 is reduced into reduced coenzyme Q (CoQH2), reduced coenzyme Q transfers electrons to a chromogenic substrate, […] (DCIP), and finally DCIP was reduced. […] The degree to which the substrate DHO is oxidized can be judged based on the degree of decrease in absorbance. The degree of oxidation of the substrate DHO per unit time is the initial rate of the enzymatic reaction. Upon addition of a inhibitor, the initial rate of the enzymatic reaction is reduced.
Substrate DHO was added to start the reaction with a DHO final concentration of 500 μM. The absorbance was read at 600 nm using a BioTek microplate reader and read every 30 s for 6 min. […] For calculating IC50 of a compound, Origin 8.0 was used to test the inhibition rate at least 8 concentrations.

Sequence of hsDHODH (Q02127 whole entry): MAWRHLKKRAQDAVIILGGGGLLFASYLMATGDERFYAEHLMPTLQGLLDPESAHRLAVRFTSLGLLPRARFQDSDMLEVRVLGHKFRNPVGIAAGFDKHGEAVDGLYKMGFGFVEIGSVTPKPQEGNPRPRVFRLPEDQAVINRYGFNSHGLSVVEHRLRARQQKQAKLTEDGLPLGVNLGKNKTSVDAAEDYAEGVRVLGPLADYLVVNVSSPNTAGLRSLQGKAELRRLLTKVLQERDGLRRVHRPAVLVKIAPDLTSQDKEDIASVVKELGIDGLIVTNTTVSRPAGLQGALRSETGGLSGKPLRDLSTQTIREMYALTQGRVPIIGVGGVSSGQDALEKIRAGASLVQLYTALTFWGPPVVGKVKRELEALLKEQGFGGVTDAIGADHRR

| IC50 | SMILES |
| --- | --- |
| > 50 µM | CC(C)(C)C(=O)OCOC(=O)c1ccccc1/C=N/Nc1nc(-c2ccccc2Cl)cs1 [Compound A9, (Pivaloyloxy)methyl (E)-2-((2-(4-(2-chlorophenyl)thiazol-2-yl)hydrazono)methyl)benzoate] |
| 1.86 ± 0.0214 µM | CC(C)OC(=O)c1ccccc1/C=N/Nc1nc(-c2ccccc2Cl)cs1 [Compound A3, (E)-4-(2-chlorophenyl)-2-(2-isopropoxyformylbenzylidenehydrazino)thiazole] |
| > 50 µM | CN(C)C(=O)c1ccccc1/C=N/Nc1nc(-c2ccccc2Cl)cs1 [Compound A13, (E)-4-(2-chlorophenyl)-2-((N,N-Dimethyl)formylbenzylidenehydrazino)thiazole] |
| > 50 µM | O=C(OC1CCCCC1)c1ccccc1/C=N/Nc1nc(-c2ccccc2Cl)cs1 [Compound A8, (E)-4-(2-chlorophenyl)-2-(2-cyclohexyloxyformylbenzylidenehydrazino)thiazole] |
| > 50 µM | CCCCCCOC(=O)c1ccccc1/C=N/Nc1nc(-c2ccccc2Cl)cs1 [Compound A7, (E)-4-(2-chlorophenyl)-2-(2-hexyloxyformylbenzylidenehydrazino)thiazole] |
| 1.4 ± 0.0661 µM | CCCOC(=O)c1ccccc1/C=N/Nc1nc(-c2ccccc2Cl)cs1 [Compound A2, (E)-4-(2-chlorophenyl)-2-(2-propoxyformylbenzylidenehydrazino)thiazole] |
| > 50 µM | CC(C)OC(=O)OCOC(=O)c1ccccc1/C=N/N(C)c1nc(-c2ccccc2Cl)cs1 [Compound B11, ((isopropoxycarbonyl)oxy)methyl (E)-2-((2-(4-(2-chlorophenyl)thiazol-2-yl)-2-methylhydrazono)methyl)benzoate] |
| > 50 µM | CN(/N=C/c1ccccc1C(=O)OCOC(=O)C(C)(C)C)c1nc(-c2ccccc2Cl)cs1 [Compound B10, (pivaloyloxy)methyl (E)-2-((2-(4-(2-chlorophenyl)thiazol-2-yl)-2-methylhydrazono)methyl)benzoate] |
| 2.34 ± 0.0468 µM | CCOC(=O)c1ccccc1/C=N/Nc1nc(-c2ccccc2Cl)cs1 [Compound A1, (E)-4-(2-chlorophenyl)-2-(2-ethoxyformylbenzylidenehydrazino)thiazole] |
| > 50 µM | CC(C)OC(=O)OCOC(=O)c1ccccc1/C=N/Nc1nc(-c2ccccc2Cl)cs1 [Compound A10, ((isopropoxycarbonyl)oxy)methyl (E)-2-((2-(4-(2-chlorophenyl)thiazol-2-yl)hydrazono)methyl)benzoate] |
| > 50 µM | O=C(OCc1ccccc1)c1ccccc1/C=N/Nc1nc(-c2ccccc2Cl)cs1 [Compound A11, (E)-4-(2-chlorophenyl)-2-(2-benzyloxyformylbenzylidenehydrazino)thiazole] |

| SMILES | IC50 |
| --- | --- |
| CCCOC(=O)c1ccccc1/C=N/N(C)c1nc(-c2ccccc2Cl)cs1 [Compound B2, (E)-4-(2-chlorophenyl)-2-[1-methyl-2-(2-propoxyformylbenzylidene)hydrazino]thiazole] | 1.96 ± 0.111 µM |
| CCC(C)OC(=O)c1ccccc1/C=N/Nc1nc(-c2ccccc2Cl)cs1 (centres unmarked) [Compound A5, (E)-4-(2-chlorophenyl)-2-(2-(2-butoxy)formylbenzylidenehydrazino)thiazole] | 4.651 ± 0.0264 µM |
| CCCCOC(=O)c1ccccc1/C=N/N(C)c1nc(-c2ccccc2Cl)cs1 [Compound B4, (E)-4-(2-chlorophenyl)-2-[1-methyl-2-(2-butoxyformylbenzylidene)hydrazino]thiazole] | > 50 µM |
| CN(/N=C/c1ccccc1C(=O)OC1CCCCC1)c1nc(-c2ccccc2Cl)cs1 [Compound B8, (E)-4-(2-chlorophenyl)-2-[1-methyl-2-(2-cyclohexyloxyformylbenzylidene)hydrazino]thiazole] | > 50 µM |
| CCCCOC(=O)c1ccccc1/C=N/Nc1nc(-c2ccccc2Cl)cs1 [Compound A4, (E)-4-(2-chlorophenyl)-2-(2-butoxyformylbenzylidenehydrazino)thiazole] | 3.53 ± 0.148 µM |
| CCC(C)OC(=O)c1ccccc1/C=N/N(C)c1nc(-c2ccccc2Cl)cs1 (centres unmarked) [Compound B5, (E)-4-(2-chlorophenyl)-2-[1-methyl-2-(2-(2-butoxy)formylbenzylidene)hydrazino]thiazole] | > 50 µM |

Same assay, conditions: purified DHODH 10 nM, DHO 500 μM, CoQ 100 μM, DCIP 120 μM; read-out: IC50 (μM) hsDHODH

| IC50 | SMILES |
| --- | --- |
| 0.0084 ± 0.0001 µM | Cc1ccc(/C=N/N(C)c2nc(-c3ccccc3Cl)cs2)c(C(=O)O)c1 [Compound 9, (E)-4-(2-chlorophenyl)-2-[1-methyl-2-(4-methyl-2-carboxybenzylidene)hydrazino]thiazole] |
| 0.0106 µM | CN(/N=C/c1ccccc1C(=O)O)c1nc(-c2cccc(Cl)c2)cs1 [Compound 21, (E)-4-(3-chlorophenyl)-2-[1-methyl-2-(2-carboxybenzylidene)hydrazino]thiazole] |
| 0.0244 ± 0.0005 µM | CN(/N=C/c1ccccc1C(=O)O)c1nc(-c2ccccc2)cs1 [Compound 20, (E)-4-phenyl-2-[1-methyl-2-(2-carboxybenzylidene)hydrazino]thiazole] |
| 0.0044 µM | CN(/N=C/c1cc(F)c(F)cc1C(=O)O)c1nc(-c2ccccc2Cl)cs1 [Compound 23] |
| 0.0214 ± 0.0005 µM | CN(/N=C/c1cc(O)c(F)cc1C(=O)O)c1nc(-c2ccccc2Cl)cs1 [Compound 24] |
| 0.0154 ± 0.0002 µM | CCCC(C)N(/N=C/c1ccccc1C(=O)O)c1nc(-c2ccccc2Cl)c(C)s1 (centres unmarked) [Compound 22, (E)-5-methyl-4-(2-chlorophenyl)-2-[1-(2-amyl)-2-(2-carboxybenzylidene)hydrazino]thiazole] |
| 0.0662 ± 0.0002 µM | Cc1sc(N/N=C/c2ccccc2C(=O)O)nc1-c1ccccc1Cl [Compound 15, (E)-5-methyl-4-(2-chlorophenyl)-2-(2-carboxylbenzylidenehydrazino)thiazole] |
| 0.0811 ± 0.0001 µM | Cc1sc(N/N=C/c2ccccc2C(=O)O)nc1-c1ccccc1 [Compound 17, (E)-5-methyl-4-phenyl-2-(2-carboxylbenzylidenehydrazino)thiazole] |
| 0.0086 ± 0.0001 µM | CCCN(/N=C/c1ccccc1C(=O)O)c1nc(-c2ccccc2Cl)cs1 [Compound 3, (E)-4-(2-chlorophenyl)-2-[1-propyl-2-(2-carboxybenzylidene)hydrazino]thiazole] |
| 0.0316 ± 0.0001 µM | CN(/N=C/c1cc(N)c(F)cc1C(=O)O)c1nc(-c2ccccc2Cl)cs1 [Compound 25] |
| 0.0868 ± 0.0009 µM | CN(/N=C/c1ccc(C(F)(F)F)cc1C(=O)O)c1nc(-c2ccccc2Cl)cs1 [Compound 8, (E)-4-(2-chlorophenyl)-2-[1-methyl-2-(4-trifluoromethyl-2-carboxybenzylidene)hydrazino]thiazole] |
| 0.0088 ± 0.0001 µM | Cc1sc(N(C)/N=C/c2ccccc2C(=O)O)nc1-c1ccccc1 [Compound 12, (E)-5-methyl-4-phenyl-2-[1-methyl-2-(2-carboxybenzylidene)hydrazino]thiazole] |
| 0.0282 µM | CN(/N=C/c1ccccc1C(=O)O)c1nc(-c2cc(Cl)ccc2Cl)cs1 [Compound 19, (E)-4-(2,5-dichlorophenyl)-2-[1-methyl-2-(2-carboxybenzylidene)hydrazino]thiazole] |
| 0.356 ± 0.0064 µM | CCc1sc(N/N=C/c2ccccc2C(=O)O)nc1-c1ccccc1Cl [Compound 14, (E)-5-ethyl-4-(2-chlorophenyl)-2-(2-carboxylbenzylidenehydrazino)thiazole] |
| 0.0136 ± 0.0005 µM | Cc1ccc(/C=N/N(C)c2nc(-c3ccccc3)c(C)s2)c(C(=O)O)c1 [Compound 11, (E)-5-methyl-4-phenyl-2-[1-methyl-2-(4-methyl-2-carboxybenzylidene)hydrazino]thiazole] |
| 0.234 ± 0.0068 µM | O=C(O)c1c(F)cccc1/C=N/Nc1nc(-c2ccccc2Cl)cs1 [Compound 58, (E)-2-((2-(4-(2-chlorophenyl)thiazol-2-yl)hydrazono)methyl)-6-fluorobenzoic acid] |
| 0.0018 ± 0.0001 µM | CN(/N=C/c1ccc(F)cc1C(=O)O)c1nc(-c2ccccc2Cl)cs1 [Compound 10, (E)-4-(2-chlorophenyl)-2-[1-methyl-2-(2-carboxyl-4-fluorobenzylidene)hydrazino]thiazole] |
| 0.0191 ± 0.0006 µM | CCCC(C)N(/N=C/c1ccccc1C(=O)O)c1nc(-c2ccccc2Cl)cs1 (centres unmarked) [Compound 6, (E)-4-(2-chlorophenyl)-2-[1-(2-amyl)-2-(2-carboxybenzylidene)hydrazino]thiazole] |
